Test results: publication PMC8266621 (2021)

How the values were obtained:
[1] = system: 46 nt NMT1 RNA (GAAA loop), wild-type xanthine riboswitch (RNA, riboswitch) GGAGUAGAAGCGUUCAGCGGCCGAAAGGCCGCCCGGAAAUUGCUCC; test: ITC; conditions: K+ 50 mM, Mg2+ 10 mM, 50 mM Tris pH 8.0, 25 °C; for binding: RNA (1.4 mM stock) titrated into 0.1 mM ligand, N.D.; for Kd: RNA titrated into 0.1 mM ligand
[2] = system: original sequence (GCCC loop) of the xanthine riboswitch (RNA, riboswitch) GGAGUAGAAGCGUUCAGCGGCCGCCCGGCCGCCCGGAAAUUGCUCC; test: ITC; conditions: K+ 50 mM, Mg2+ 10 mM; 50 mM Tris pH 8.0, 25 °C; RNA titrated into 0.1 mM ligand
[3] = system: C11G (RNA, riboswitch) GGAGUAGAAGGGUUCAGCGGCCGAAAGGCCGCCCGGAAAUUGCUCC; test: ITC; conditions: K+ 50 mM, Mg2+ 10 mM; 50 mM Tris pH 8.0, 25 °C; RNA (1.4 mM stock) titrated into 0.1 mM ligand
[4] = system: G35C (RNA, riboswitch) GGAGUAGAAGCGUUCAGCGGCCGAAAGGCCGCCCCGAAAUUGCUCC; test: ITC; conditions: K+ 50 mM, Mg2+ 10 mM; 50 mM Tris pH 8.0, 25 °C; RNA (1.4 mM stock) titrated into 0.1 mM ligand
[5] = system: C11U-G35A (RNA, riboswitch) GGAGUAGAAGUGUUCAGCGGCCGAAAGGCCGCCCAGAAAUUGCUCC; test: ITC; conditions: K+ 50 mM, Mg2+ 10 mM; 50 mM Tris pH 8.0, 25 °C; RNA (1.4 mM stock) titrated into 0.1 mM ligand
[6] = system: C11G-G35C (RNA, riboswitch) GGAGUAGAAGGGUUCAGCGGCCGAAAGGCCGCCCCGAAAUUGCUCC; test: ITC; conditions: K+ 50 mM, Mg2+ 10 mM; 50 mM Tris pH 8.0, 25 °C; RNA (1.4 mM stock) titrated into 0.1 mM ligand
[7] = system: G12A (RNA, riboswitch) GGAGUAGAAGCAUUCAGCGGCCGAAAGGCCGCCCGGAAAUUGCUCC; test: ITC; conditions: K+ 50 mM, Mg2+ 10 mM; 50 mM Tris pH 8.0, 25 °C; 7-fold decrease
[8] = system: C34A (RNA, riboswitch) GGAGUAGAAGCGUUCAGCGGCCGAAAGGCCGCCAGGAAAUUGCUCC; test: ITC; conditions: K+ 50 mM, Mg2+ 10 mM; 50 mM Tris pH 8.0, 25 °C; comparable to wild-type
[9] = system: C34U (RNA, riboswitch) GGAGUAGAAGCGUUCAGCGGCCGAAAGGCCGCCUGGAAAUUGCUCC; test: ITC; conditions: K+ 50 mM, Mg2+ 10 mM; 50 mM Tris pH 8.0, 25 °C; 3- to 4-fold decrease
[10] = system: C34G (RNA, riboswitch) GGAGUAGAAGCGUUCAGCGGCCGAAAGGCCGCCGGGAAAUUGCUCC; test: ITC; conditions: K+ 50 mM, Mg2+ 10 mM; 50 mM Tris pH 8.0, 25 °C; 3- to 4-fold decrease
[11] = system: A16G (RNA, riboswitch) GGAGUAGAAGCGUUCGGCGGCCGAAAGGCCGCCCGGAAAUUGCUCC; test: ITC; conditions: K+ 50 mM, Mg2+ 10 mM; 50 mM Tris pH 8.0, 25 °C; 4-fold less affinity
[12] = system: A16G/C33U (RNA, riboswitch) GGAGUAGAAGCGUUCGGCGGCCGAAAGGCCGCUCGGAAAUUGCUCC; test: ITC; conditions: K+ 50 mM, Mg2+ 10 mM; 50 mM Tris pH 8.0, 25 °C; 4-fold less affinity
[13] = system: A9C (RNA, riboswitch) GGAGUAGACGCGUUCAGCGGCCGAAAGGCCGCCCGGAAAUUGCUCC; test: ITC; conditions: K+ 50 mM, Mg2+ 10 mM; 50 mM Tris pH 8.0, 25 °C; RNA (1.4 mM stock) titrated into 0.1 mM ligand
[14] = system: A8C (RNA, riboswitch) GGAGUAGCAGCGUUCAGCGGCCGAAAGGCCGCCCGGAAAUUGCUCC; test: ITC; conditions: K+ 50 mM, Mg2+ 10 mM; 50 mM Tris pH 8.0, 25 °C; RNA (1.4 mM stock) titrated into 0.1 mM ligand
[15] = system: A8U (RNA, riboswitch) GGAGUAGUAGCGUUCAGCGGCCGAAAGGCCGCCCGGAAAUUGCUCC; test: ITC; conditions: K+ 50 mM, Mg2+ 10 mM; 50 mM Tris pH 8.0, 25 °C; RNA (1.4 mM stock) titrated into 0.1 mM ligand
[16] = system: G7A-A8G (RNA, riboswitch) GGAGUAAGAGCGUUCAGCGGCCGAAAGGCCGCCCGGAAAUUGCUCC; test: ITC; conditions: K+ 50 mM, Mg2+ 10 mM; 50 mM Tris pH 8.0, 25 °C; RNA (1.4 mM stock) titrated into 0.1 mM ligand
[17] = system: G10A (RNA, riboswitch) GGAGUAGAAACGUUCAGCGGCCGAAAGGCCGCCCGGAAAUUGCUCC; test: ITC; conditions: K+ 50 mM, Mg2+ 10 mM; 50 mM Tris pH 8.0, 25 °C; RNA (1.4 mM stock) titrated into 0.1 mM ligand
[18] = system: G10C (RNA, riboswitch) GGAGUAGAACCGUUCAGCGGCCGAAAGGCCGCCCGGAAAUUGCUCC; test: ITC; conditions: K+ 50 mM, Mg2+ 10 mM; 50 mM Tris pH 8.0, 25 °C; RNA (1.4 mM stock) titrated into 0.1 mM ligand
[19] = system: U40A (RNA, riboswitch) GGAGUAGAAGCGUUCAGCGGCCGAAAGGCCGCCCGGAAAAUGCUCC; test: ITC; conditions: K+ 50 mM, Mg2+ 10 mM; 50 mM Tris pH 8.0, 25 °C; RNA (1.4 mM stock) titrated into 0.1 mM ligand
[20] = system: U40C (RNA, riboswitch) GGAGUAGAAGCGUUCAGCGGCCGAAAGGCCGCCCGGAAACUGCUCC; test: ITC; conditions: K+ 50 mM, Mg2+ 10 mM; 50 mM Tris pH 8.0, 25 °C; RNA (1.4 mM stock) titrated into 0.1 mM ligand
[21] = system: G10C-U40A (RNA, riboswitch) GGAGUAGAACCGUUCAGCGGCCGAAAGGCCGCCCGGAAAAUGCUCC; test: ITC; conditions: K+ 50 mM, Mg2+ 10 mM; 50 mM Tris pH 8.0, 25 °C; RNA (1.4 mM stock) titrated into 0.1 mM ligand
[22] = system: A8Ap (RNA, riboswitch, 2-aminopurine at 8) GGAGUAGAAGCGUUCAGCGGAAACGCCCGGAAAUUGCUCC; test: 2-aminopurine fluorescence; conditions: K+ 100 mM, Mg2+ 20 mM; 100 mM Tris-HCl pH 8.4, 20 °C; 0.5 μM RNA, 3 mM xanthine; qualitative
[23] = system: G7Ap (RNA, riboswitch, 2-aminopurine at 7) GGAGUAGAAGCGUUCAGCGGAAACGCCCGGAAAUUGCUCC; test: 2-aminopurine fluorescence; conditions: K+ 100 mM, Mg2+ 20 mM; 100 mM Tris-HCl pH 8.4, 20 °C; 0.5 μM RNA, 3 mM xanthine; qualitative
[24] = system: G12Ap (RNA, riboswitch, 2-aminopurine at 12) GGAGUAGAAGCGUUCAGCGGAAACGCCCGGAAAUUGCUCC; test: 2-aminopurine fluorescence; conditions: K+ 100 mM, Mg2+ 20 mM; 100 mM Tris-HCl pH 8.4, 20 °C; 0.5 μM RNA, 3 mM xanthine; qualitative
[25] = system: A6Ap (RNA, riboswitch, 2-aminopurine at 6) GGAGUAGAAGCGUUCAGCGGAAACGCCCGGAAAUUGCUCC; test: 2-aminopurine fluorescence; conditions: K+ 100 mM, Mg2+ 20 mM; 100 mM Tris-HCl pH 8.4, 20 °C; 0.5 μM RNA, 3 mM xanthine; qualitative

In the case of `Nc1ncnc2[nH]cnc12`, the binding [1] was “no”.
With `O=c1[nH]c(=O)c2[nH]cnc2[nH]1` the Kd [1] was 4.4 ± 0.2 µM, the Kd [2] was 3.6 ± 0.3 µM and the binding [3] was “no”. For the same compound, the binding [4] was “no”, the binding [5] was “no” and the binding [6] was “no”. For the same compound, the binding [7] was “yes”, the binding [8] was “yes” and the binding [9] was “yes”. For the same compound, the binding [10] was “yes”, the binding [11] was “yes” and the binding [12] was “yes”. For the same compound, the binding [13] was “no”, the binding [14] was “no” and the binding [15] was “no”. The binding [16] was “no”, the binding [17] was “no” and the binding [18] was “no”. The binding [19] was “no”, the binding [20] was “no” and the binding [21] was “no”. The binding [22] was “yes”, the binding [23] was “yes” and the binding [24] was “yes”. The binding [25] was “yes”.
`O=c1[nH]cnc2c1ncn2[C@@H]1O[C@H](CO)[C@@H](O)[C@H]1O` was tested, and the binding [1] was “no”.
For `Nc1ncnc2c1ncn2[C@@H]1O[C@H](CO)[C@@H](O)[C@H]1O`, the binding [1] was “no”.
In the case of `O=c1[nH]c(=O)c2[nH]c(=O)[nH]c2[nH]1`, the Kd [1] was 20.4 ± 1.7 µM.
With `O=c1[nH]cnc2nc[nH]c12` the binding [1] was “no”.
For `O=c1[nH]c(=O)c2[nH]nnc2[nH]1`, the Kd [1] was 3.0 ± 0.1 µM.
